In patent US20230147683A1, “TREATMENT” (UNION Therapeutics A/S, priority 2020, published 2023):

How the values were obtained:
[1] = test system: SARS-CoV-2 B 1.351 strain; assay: microbe, parasite or virus in culture; type: cell-based; conditions: Severe acute respiratory syndrome coronavirus 2; VeroE6 TMPRSS2 cells; read-out: EC50 against B 1.351 strain
SARS-CoV-2 D614 strain = assay: microbe, parasite or virus in culture; type: cell-based; conditions: Severe acute respiratory syndrome coronavirus 2; VeroE6 TMPRSS2 cells; read-out: EC50 against D614 strain
SARS-CoV-2 = assay: Inhibition of SARS-CoV-2 replication in Caco-2 cells; type: cell-based; conditions: Severe acute respiratory syndrome coronavirus 2
in vitro [2] = conditions: human
[3] = human, in vivo
[4] = test system: SARS-CoV-2 B.1.1.7 strain; assay: microbe, parasite or virus in culture; type: cell-based; conditions: Severe acute respiratory syndrome coronavirus 2; VeroE6 TMPRSS2 cells; read-out: EC50 against B.1.1.7 strain
clinical = conditions: human, in vivo
in vitro [5] = conditions: African green monkey
SARS-CoV = conditions: cited from earlier work
[6] = 2 g/day oral dose; IC90 against SARS-CoV-2
TMEM16A = biological target: T1, TMEM16A (Homo sapiens, UniProt Q5XXA6); conditions: cited from earlier work
T1 sequence (Q5XXA6 1-986): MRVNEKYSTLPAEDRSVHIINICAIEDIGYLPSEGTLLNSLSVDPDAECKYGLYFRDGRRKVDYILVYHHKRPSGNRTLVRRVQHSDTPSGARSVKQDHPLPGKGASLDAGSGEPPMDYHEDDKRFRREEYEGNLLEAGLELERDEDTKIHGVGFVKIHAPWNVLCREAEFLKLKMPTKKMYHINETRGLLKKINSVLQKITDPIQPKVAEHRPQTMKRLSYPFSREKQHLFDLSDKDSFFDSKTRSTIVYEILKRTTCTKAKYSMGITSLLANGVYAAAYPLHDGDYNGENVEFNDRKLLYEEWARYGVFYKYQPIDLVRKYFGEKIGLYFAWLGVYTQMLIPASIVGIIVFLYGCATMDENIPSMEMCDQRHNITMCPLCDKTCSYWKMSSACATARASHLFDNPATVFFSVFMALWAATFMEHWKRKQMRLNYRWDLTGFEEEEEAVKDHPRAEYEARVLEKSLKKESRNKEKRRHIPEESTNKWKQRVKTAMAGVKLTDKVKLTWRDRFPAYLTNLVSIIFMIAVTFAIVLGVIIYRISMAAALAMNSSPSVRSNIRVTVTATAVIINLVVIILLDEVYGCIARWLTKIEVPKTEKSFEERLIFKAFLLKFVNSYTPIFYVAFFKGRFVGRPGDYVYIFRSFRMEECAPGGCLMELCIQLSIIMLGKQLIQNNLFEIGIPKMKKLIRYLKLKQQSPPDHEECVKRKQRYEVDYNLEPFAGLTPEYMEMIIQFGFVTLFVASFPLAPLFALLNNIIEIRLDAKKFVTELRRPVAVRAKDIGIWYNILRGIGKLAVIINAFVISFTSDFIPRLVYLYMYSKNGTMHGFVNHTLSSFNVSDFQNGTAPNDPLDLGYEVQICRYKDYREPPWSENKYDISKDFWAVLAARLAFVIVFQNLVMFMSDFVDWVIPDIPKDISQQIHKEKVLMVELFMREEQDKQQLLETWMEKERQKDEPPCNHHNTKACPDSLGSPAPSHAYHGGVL

all targeted strains = assay: Minimum Inhibitory Concentration (MIC) assay, all strains; conditions: read-out: MIC against all targeted strains
TMEM16F = biological target: T2, TMEM16F (Homo sapiens, UniProt Q4KMQ2); conditions: cited from earlier work
T2 sequence (Q4KMQ2 1-910): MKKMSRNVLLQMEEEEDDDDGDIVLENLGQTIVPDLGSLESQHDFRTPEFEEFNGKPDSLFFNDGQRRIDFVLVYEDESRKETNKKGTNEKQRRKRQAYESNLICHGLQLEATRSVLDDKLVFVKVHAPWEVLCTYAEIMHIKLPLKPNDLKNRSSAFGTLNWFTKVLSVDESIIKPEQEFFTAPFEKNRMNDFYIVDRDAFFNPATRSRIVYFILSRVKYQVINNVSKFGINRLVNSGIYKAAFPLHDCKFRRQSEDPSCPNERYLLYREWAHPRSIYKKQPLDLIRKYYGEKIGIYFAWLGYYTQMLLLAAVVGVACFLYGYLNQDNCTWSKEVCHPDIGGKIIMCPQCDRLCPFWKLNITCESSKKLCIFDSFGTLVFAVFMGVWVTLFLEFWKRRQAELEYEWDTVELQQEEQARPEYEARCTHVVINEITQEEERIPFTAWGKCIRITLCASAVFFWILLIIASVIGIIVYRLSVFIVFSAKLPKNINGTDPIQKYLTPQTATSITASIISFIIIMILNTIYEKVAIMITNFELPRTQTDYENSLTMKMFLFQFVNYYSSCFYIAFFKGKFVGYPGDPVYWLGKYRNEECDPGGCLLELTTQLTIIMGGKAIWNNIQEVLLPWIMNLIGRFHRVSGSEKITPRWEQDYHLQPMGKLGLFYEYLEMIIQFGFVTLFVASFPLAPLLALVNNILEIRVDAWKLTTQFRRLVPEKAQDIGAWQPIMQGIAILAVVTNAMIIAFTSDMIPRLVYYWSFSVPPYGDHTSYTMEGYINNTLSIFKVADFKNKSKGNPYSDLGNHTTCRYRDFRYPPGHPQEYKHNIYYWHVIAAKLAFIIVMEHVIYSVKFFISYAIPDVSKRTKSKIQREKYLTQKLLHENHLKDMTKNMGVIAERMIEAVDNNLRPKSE

[7] = asthmatic mice, niclosamide in corn oil, I.P. injection; cited from earlier work

Structure (SMILES)	EC50 [1] [nM]	EC50 (SARS-CoV-2 D614 strain) [nM]	EC50 (SARS-CoV-2) [nM]	CC50 (in vitro [2]) [nM]	peak concentrations in blood (range) [3] [ng/mL]	EC50 [4] [nM]	AUC(0-t) (clinical) [ng·h/mL]	Cmax (clinical; maximum plasma concentration (Cmax), mean) [ng/mL]	CC50 (in vitro [5]) [nM]	concentration at which viral antigen synthesis was totally abolished (SARS-CoV) [μm]	concentration suppressing cytopathic effect (CPE), as low as (SARS-CoV) [μm]	efficacy margin, mean systemic exposure of human oral dose to IC90 [6] [fold]	inhibition of TMEM16A (TMEM16A)	MIC (all targeted strains) [µg/mL]	inhibition of TMEM16F (TMEM16F)	effect on mucus production and secretion and bronchoconstriction [7]
O=C(Nc1ccc([N+](=O)[O-])cc1Cl)c1cc(Cl)ccc1O [niclosamide ethanolamine]	70	130	80	> 10000	29 to 506	80	509	239	> 10000							
O=C(Nc1ccc([N+](=O)[O-])cc1Cl)c1cc(Cl)ccc1O [niclosamide, 5-chloro-N-(2-chloro-4-nitrophenyl)-2-hydroxybenzamide]										1.56	1	8	potent inhibitor	≤ 0.5	potent inhibitor	reduced mucus production and secretion, as well as bronchoconstriction
